Experimental data taken from ChEMBL document CHEMBL1141294, “Renierosides, cerebrosides from a marine sponge Haliclona (Reniera) sp” (2007).

Legend:
Type in all cases: functional
Details in all cases: read-out: ED50 (the source's name)
[1] = system: SK-OV-3; assay: Cytotoxicity against human SK-OV-3 cells
[2] = system: XF498; assay: Cytotoxicity against human XF498 cells
[3] = system: HCT-15; assay: Cytotoxicity against human HCT15 cells
[4] = system: SK-MEL-2; assay: Cytotoxicity against human SK-MEL-2 cells
[5] = system: A549; assay: Cytotoxicity against human A549 cells

Measured: EC50

CCCCCCC/C=C/C=C/CC/C=C/[C@@H](O)[C@H](CO[C@@H]1O[C@H](CO)[C@@H](O)[C@H](O)[C@H]1O)NC(=O)[C@H](O)CCCCCCCCCCCCC/C=C\CCCCCCCC [RENIEROSIDE A3]
> 10 µg/mL: [1] | [2] | [3] | [4] | [5]

CCCCCCC/C=C/C=C/CC/C=C/[C@@H](O)[C@H](CO[C@@H]1O[C@H](CO)[C@@H](O)[C@H](O)[C@H]1O)NC(=O)[C@H](O)CCCCCCCCCCCCCC/C=C\CCCCCCCC [RENIEROSIDE A2]
> 10 µg/mL: [1] | [2] | [3] | [4] | [5]

CCCCCC/C=C\CCCCCCCCCCCCCCCCCC[C@@H](O)C(=O)N[C@@H](CO[C@@H]1O[C@H](CO)[C@@H](O)[C@H](O)[C@H]1O)[C@H](O)/C=C/CC/C=C(C)/C=C/CCCCCCC [RENIEROSIDE B1]
> 10 µg/mL: [1] | [2] | [3] | [4] | [5]

CCCCCCC/C=C/C(C)=C/CC/C=C/[C@@H](O)[C@H](CO[C@@H]1O[C@H](CO)[C@@H](O)[C@H](O)[C@H]1O)NC(=O)[C@H](O)CCCCCCCCCCCCCC/C=C\CCCCCCCC [RENIEROSIDE B2]
> 10 µg/mL: [1] | [2] | [3] | [4] | [5]

CCCCCCC/C=C/C=C/CC/C=C/[C@@H](O)[C@H](CO[C@@H]1O[C@H](CO)[C@@H](O)[C@H](O)[C@H]1O)NC(=O)[C@H](O)CCCCCCCCCCCCCCCCCCCC [RENIEROSIDE A4]
> 10 µg/mL: [1] | [2] | [3] | [4] | [5]

CCCCCC/C=C\CCCCCCCCCCCCCCCCCC[C@@H](O)C(=O)N[C@@H](CO[C@@H]1O[C@H](CO)[C@@H](O)[C@H](O)[C@H]1O)[C@H](O)/C=C/CC/C=C/C=C/CCCCCCC [RENIEROSIDE A1]
> 10 µg/mL: [1] | [2] | [3] | [4] | [5]

CCCCCCC/C=C/C=C/CC/C=C/[C@@H](O)[C@H](CO[C@@H]1O[C@H](CO)[C@@H](O)[C@H](O)[C@H]1O)NC(=O)[C@H](O)CCCCCCCCCCCCCCCCCCCCCC [RENIEROSIDE A5]
> 10 µg/mL: [1] | [2] | [3] | [4] | [5]

CCCCCC/C=C\CCCCCCCCCCCCCCCCC[C@@H](O)C(=O)N[C@@H](CO[C@@H]1O[C@H](CO)[C@@H](O)[C@H](O)[C@H]1O)[C@H](O)/C=C/CC/C=C(C)/C=C/CCCCCCC [RENIEROSIDE B3]
> 10 µg/mL: [1] | [2] | [3] | [4] | [5]
